Experimental data reported in PMC7570852, “Ruthenium(II)/(III) DMSO-Based Complexes of 2-Aminophenyl Benzimidazole with In Vitro and In Vivo Anticancer Activity” (Molecules, 2020).
Marks after values point to notes of the source that are not given here.

Columns and labels:
[1] = Maximum tolerated dose in healthy mice; type: in vivo
Method: These mice were examined daily for any sign of toxicity and weighed every two days. […] Therefore, doses of 6, 12, and 18 mg/kg were used in subsequent experiments.

CT DNA (EB-DNA adduct) = assay: Ethidium bromide (EB-DNA) competitive fluorescence assay; type: binding, calf; conditions: [DNA] = [EB] = 5 μM
Method: The binding affinity of the metal complexes towards CT DNA was evaluated using competitive fluorescence studies. CT DNA pretreated with ethidium bromide (EB) ([DNA] = [EB] = 5 μM) in Tris-HCl/NaCl buffer (pH = 7.2) was incubated with the complexes in concentrations of 0–90 μM. […] The quenching of EB-DNA adduct fluorescence was followed by monitoring the emission spectra in the wavelength range of 530–650 nm. Upon addition of the metal complexes to the EB-DNA adduct, the quenching binding constant (Kq) at λ = 585 nm is determined from the Stern-Volmer Equation (2):I0/I = 1 + Kq[Q](2) where I0 and I are the fluorescence intensities of EB-DNA in the […] of the metal complexes, respectively, [Q] is the concentration of the tested compounds, and Kq is the quenching constant calculated from the slope of the straight line obtained from plotting Io/I vs. [Q]. In addition, the apparent binding constant can be calculated from Equation (3):KEB[EB] = Kapp[Q](3) where KEB = 1 × 10^7 M^−1 [EB] is the ethidium bromide concentration (5 μM) and [Q] is the concentration of the quencher that provides a 50% intensity reduction of the initial EB-DNA adduct.

[2] = Serum liver and kidney function tests, healthy mice; type: in vivo; conditions: mean ± SEM
Method: (§1) The mice were divided into the following eight groups (10 mice in each group): • Control group: Mice were intraperitoneally injected with a vehicle (2% DMSO + sterile saline) for 12 days. • I, II, and III control groups: Healthy normal mice were intraperitoneally injected with 6, 12, and 18 mg/kg of complex (2), respectively, for 12 days. • EAC group: Mice were intraperitoneally injected by a single dose of 2.5 × 10^6 viable Ehrlich ascites carcinoma (EAC) cells in PBS. In brief, EAC cells were withdrawn from the EAC mouse’s intraperitoneal cavity, washed, and centrifuged three times with sterile saline. Then, the pellets were suspended in sterile PBS and counted by the trypan blue exclusion assay, which confirmed that the viability of the cells was 98%. • I, II, and III treated groups: Firstly, 30 healthy mice were intraperitoneally injected with a single dose of 2.5 × 10^6 viable EAC cells. After one day; the mice were divided into I, II, and III treated groups (10 mice each group), intraperitoneally injected with 6, 12, and 18 mg/kg Ru(III) complex, respectively, for 12 days.
(§2) The animals were monitored for EAC growth by measuring abdominal size. At the end of the experiment all animals were fasted overnight then sacrificed. Serum samples were collected to study the biological parameters such as liver and kidney function as well as antioxidant enzyme activity. Liver samples from each group were frozen immediately in liquid nitrogen for molecular analysis.
(§3) Liver function tests. Serum GPT and GOT activities were measured by the method of Murray with a standard kit. The enzyme activities were estimated by measuring the decrease in absorbance of NADH at 340 nm. Bilirubin concentration was estimated by the colorimetric method of Kaplan et al.. Albumin concentration was measured colorimetrically by the color change of bromocresol from yellow-green to green-blue.
(§4) Kidney function tests. Creatinine was estimated colorimetrically by reacting with alkaline picrate forming a red complex. Urea was hydrolyzed enzymatically into ammonia which reacts with several compounds to form a green complex that can be measured colorimetrically. Uric acid was estimated by the enzymatic method of Schultz.

[3] = test system: Ehrlich ascites carcinoma (EAC); assay: Serum liver and kidney function tests, EAC-bearing mice; type: in vivo; conditions: mean ± SEM
Method: as §1, §2, §3, §4

[4] = test system: Ehrlich ascites carcinoma (EAC); assay: EAC mouse model: abdominal size and peritoneal angiogenesis; type: in vivo, mice; conditions: for mean abdominal circumference: EAC mice
Method: as §1, §2

[5] = II control 12 mg/kg i.p. 12 days
[6] = III control 18 mg/kg i.p. 12 days
[7] = II treated 12 mg/kg i.p. 12 days
[8] = III treated 18 mg/kg i.p. 12 days

SMILES: CS(C)=O.Nc1ccccc1-c1nc2ccccc2[nH]1.O.[Cl][Ru]([Cl])[Cl] [(2), [Ru(III)Cl3(DMSO)(Hapbim)]·H2O]
- toxicity on repeated dosing ([1]; healthy mice, 6, 12 and 18 mg/kg i.p., until the 12th day): No weight loss or signs of toxicity
- toxicity on repeated dosing ([1]; healthy mice, 30 and 40 mg/kg i.p.): toxic after 3-5 days and all the animals were dead on the fifth day
- Kapp (apparent binding constant) (CT DNA (EB-DNA adduct); KEB = 1 × 10^7 M^−1): 1.72 ± 0.28 × 10^7 M^−1
- Kq (quenching constant) (CT DNA (EB-DNA adduct); Stern-Volmer, 585 nm): 8.64 ± 0.15 × 10^3 M^−1
- Albumin ([2]; I control 6 mg/kg i.p. 12 days): 2.3 ± 0.1 g/dL
- Bilirubin ([2]; I control 6 mg/kg i.p. 12 days): 0.15 ±0.02 ^b mg/dL
- Creatinine ([2]; I control 6 mg/kg i.p. 12 days): 0.37 ±0.1 ^b mg/dL
- GOT ([2]; I control 6 mg/kg i.p. 12 days): 41.8 ± 2.9 ^b U/L
- GPT ([2]; I control 6 mg/kg i.p. 12 days): 15.6 ± 1.6 ^b U/L
- Urea ([2]; I control 6 mg/kg i.p. 12 days): 33.5 ± 0.7 ^b mg/dL
- Uric Acid ([2]; I control 6 mg/kg i.p. 12 days): 2.9 ± 0.1 ^b mg/dL
- Albumin [2, 5]: 2.7 ± 0.1 ^b g/dL
- Bilirubin [2, 5]: 0.13 ± 0.02 ^b mg/dL
- Creatinine [2, 5]: 0.7 ± 0.02 mg/dL
- GOT [2, 5]: 54.9 ± 2.2 U/L
- GPT [2, 5]: 17.2 ± 0.5 ^b U/L
- Urea [2, 5]: 31.7 ± 1.2 ^b mg/dL
- Uric Acid [2, 5]: 2.97 ± 0.1 ^b mg/dL
- Albumin [2, 6]: 2.3 ± 0.1 g/dL
- Bilirubin [2, 6]: 0.26 ± 0.02 mg/dL
- Creatinine [2, 6]: 0.75 ± 0.02 mg/dL
- GOT [2, 6]: 68.8 ± 3.6 U/L
- GPT [2, 6]: 19.6 ± 0.3 U/L
- Urea [2, 6]: 36.7 ± 1.6 ^b mg/dL
- Uric Acid [2, 6]: 2.77 ± 0.1 ^b mg/dL
- Albumin ([3]; I treated 6 mg/kg i.p. 12 days): 0.9 ± 0.03 g/dL
- Bilirubin ([3]; I treated 6 mg/kg i.p. 12 days): 0.18 ± 0.03 mg/dL
- Creatinine ([3]; I treated 6 mg/kg i.p. 12 days): 0.7 ± 0.01 mg/dL
- GOT ([3]; I treated 6 mg/kg i.p. 12 days): 248 ± 15.6 ^a U/L
- GPT ([3]; I treated 6 mg/kg i.p. 12 days): 15.2 ± 0.7 U/L
- Urea ([3]; I treated 6 mg/kg i.p. 12 days): 34.5 ± 0.4 mg/dL
- Uric Acid ([3]; I treated 6 mg/kg i.p. 12 days): 2.6 ± 0.1 mg/dL
- Albumin [3, 7]: 2.7 ± 0.3 g/dL
- Bilirubin [3, 7]: 0.2 ± 0.03 mg/dL
- Creatinine [3, 7]: 0.7 ± 0.1 mg/dL
- GOT [3, 7]: 179 ± 10.8 U/L
- GPT [3, 7]: 17.8 ± 0.6 U/L
- Urea [3, 7]: 34.2 ± 0.6 mg/dL
- Uric Acid [3, 7]: 2.7 ± 0.1 mg/dL
- Albumin [3, 8]: 2.6 ± 0.1 g/dL
- Bilirubin [3, 8]: 0.18 ± 0.02 mg/dL
- Creatinine [3, 8]: 1 ± 0.1 ^a mg/dL
- GOT [3, 8]: 145 ± 39.3 U/L
- GPT [3, 8]: 31.9 ± 7.8 U/L
- Urea [3, 8]: 33.3 ± 1.2 mg/dL
- Uric Acid [3, 8]: 2.8 ± 0.1 mg/dL
- peritoneal angiogenesis ([4]; EAC mice, 6, 12, 18 mg/kg treated groups vs EAC group): decreased in a dose-dependent manner
- mean abdominal circumference ([4]; I (6 mg/kg) i.p. for 12 days, untreated EAC 13.20 ± 0.03, control 7.06 ± 0.18): 9.6 ± 0.2 cm
- mean abdominal circumference ([4]; II (12 mg/kg) i.p. for 12 days): 7.30 ± 0.03 cm
- mean abdominal circumference ([4]; III (18 mg/kg) i.p. for 12 days): 7.10 ± 0.03 cm
